# Measurements: patent publication US20230136075A1, “TREATMENT FOR SEPSIS-INDUCED ORGAN DYSFUNCTION” (The Florey Institute of Neuroscience and Mental Health, priority 2020, published 2023)
# System: ovine sepsis induced by intravenous infusion of live E. coli
# From the text: Using this model, the inventors have investigated the effect of mega dose intravenous vitamin C therapy on various parameters indicative of the progression of sepsis in sheep (Merino ewes, 35-45 kg; 1.5-2.0 years old). Sheep were divided into two groups, a vitamin C (sodium ascorbate) therapy group and a vehicle group as a control. Experimental protocols were approved by the Animal Ethics Committee of the Florey Institute of Neuroscience and Mental Health under guidelines of the National Health and Medical Research Council of Australia.
# Preparatory surgical procedures were carried out as described in Lankadeva et al. (2018b). Briefly, two preparatory surgical procedures were performed under general anaesthesia. First, a carotid artery was exteriorised into a skin fold to form a carotid arterial loop to facilitate cannulation for measurement of arterial pressure and heart rate, and for blood sampling. During the same surgical procedure, a flow probe was placed around the pulmonary artery to measure cardiac output. Animals were allowed 3-4 weeks of recovery. Second, a flow probe was implanted around a renal artery to measure renal blood flow, a renal vein was cannulated for blood sampling and fibre optic probes were inserted into the renal cortex, renal medulla (within kidneys) and parietal cortex (brain) to measure tissue perfusion, oxygen tension and temperature.
# During the second surgical procedure cannulae were implanted in the carotid artery for arterial pressure measurement and blood sampling and the jugular vein for infusion of fluids, vasopressors, Escherichia coli, sodium ascorbate and blood sampling, and a Foley catheter was inserted into the bladder to collect urine and monitor hourly urine output.
# Following three days of recovery from the second surgical procedure, the experimental protocol (see FIG. 1) was initiated in conscious sheep, to avoid the confounding effects of general anaesthesia. Animals daily food and water intake and urine output was measured on a 24-hour basis during the course of the 5-day protocol.
# First, a 24-hour baseline period was commenced, which included measurement of systemic haemodynamics, renal and brain perfusion and oxygenation, arterial, central venous and renal venous blood gases and lactate, and urine output. Arterial blood and urine samples were collected at set times during the experimental period.
# After establishment of the 24-hour baseline period, gram-negative sepsis was induced by intravenous infusion of live E. coli (isolated from a patient with sepsis at Austin Health) as described in Lankadeva et al. (2018b), administered as a loading (bolus) infusion of 2.8×10^9 colony-forming units (CFU) over 30-minutes followed by a continuous infusion of 1.26×10^9 CFU/h for 30.5 hours. No prophylactic antibiotics, sedative or analgesic agents were administered during this protocol. The description in the following paragraphs is with reference to the protocol as shown schematically in FIG. 1.
# At 23 hours of sepsis, when sheep had fulfilled the clinical criteria for sepsis (i.e. established hypotension, tachycardia, fever, lung injury, tachypnoea, hyperlactatemia and stage 1-2 acute kidney injury) animals were resuscitated with 30 mL/kg balanced crystalloid sodium lactate (Hartmann's solution infused at approximately 2500 ml/hr) for 30 mins, from 23-23.5 hours of sepsis.
# A blocked randomization design was used to allocate sheep to treatment with sodium ascorbate or vehicle.
# [1] = NaHCO3 infusion, two septic sheep
# [2] = during the infusion of NaHCO3, two septic sheep
smiles,measurement,setting,value
"O=C([O-])O.[Na+] [NaHCO3, sodium bicarbonate]",MAP,[1],decreased
same,RBF,[1],not reduced
same,arterial PO2,[1],no improvement
same,blood pH,[1],large increase
same,blood potassium,[1],hypokalemia
same,blood sodium,[1],hypernatremia
same,creatinine clearance,[1],no reduction in plasma creatinine or increase in creatinine clearance was observed
same,heart rate,[1],not reduced
same,norepinephrine dose required,[1],increasing doses of norepinephrine were required
same,plasma creatinine,[1],no reduction
same,renal medullary PO2,[1],no improvement
same,renal medullary perfusion,[1],no improvement
same,urine flow,[1],urine flow increased
same,body temperature,[2],large increases
same,shivering,[2],intermittent shivering
same,reproduction of the effects of sodium ascorbate,"hypertonic NaHCO3, equal sodium load, 8.4 g/kg over 30 minutes then 8.4 g/kg/hr for 6.5 hours, two septic sheep, data not shown",did not reproduce the effects of sodium ascorbate
